According to patent EP4817688A2, “DEGRADING PKCß1 TO TREAT CANCER” (Mayo Foundation for Medical Education and Research, priority 2020, dated 2022):

What was measured:
Assay type in all cases: cell-based
[1] = test system: KURAMOCHI cells; test: crystal violet (CV) proliferation assay, KURAMOCHI; conditions: KURAMOSHI (PKCβ1^low) 1000 cells/well; read-out: Approximate IC50
Protocol: (§1) Cell proliferation rates were determined using crystal violet assays. One thousand cells per well were plated in 96 well tissue culture plates and treated the following day with a bifunctional compound or control for 7 days in replicates of 8. Cells were fixed with 25% glutaraldehyde for 10 minutes with shaking, washed 5 times with distilled water, stained with a 1% crystal violet solution (solubilized in 25% methanol) for 10 minutes, washed again 5 times and allowed to dry. De-staining was performed using […] sodium citrate in 50% ethanol followed by quantification using a 96 well spectrophotometer set at an absorbance of 550 nm.
Based on the potent anti-proliferative activity of ENDX-PROTACs TC-Pr-006, TC-Pr-007, TC-Pr -008, and TC-Pr -009 in TNBC cells, the efficacy of these compounds for inhibiting the growth of ovarian cancer cells was tested. This analysis utilized KURAMOCHI cells, which represent the high-grade serous subtype (the most malignant form that accounts for 70% of all ovarian cancers and associates with poor clinical outcome) and MDAH-2774 cells, which represent endometrioid ovarian cancer and accounts for 20% of all ovarian cancer. PKCβ1 was confirmed to be expressed in both ovarian cancer cell line models, with MDAH-2774 cells expressing higher amounts of PKCβ1 compared to KURAMOCHI cells (FIG. 5A). […]

[2] = test system: PKCβ1, E2F1, and Cyclin D1; test: western blot in BT549 and MDAMB436 cells (Example 6); conditions: 1 µM, 24, 48, and 72 hours
Protocol: TNBC BT549 and MDAMB436 cells were cultured in phenol-red free DMEM/F12 medium supplemented with 10% fetal bovine serum (FBS) and 1% AA. On day 1, cells were plated at a density of 2 x 10^5 BT549 cells or 4 x 10^5 MDAMB436 cells in a 6-well plate (two wells per treatment). The next day, cells were treated with DMSO, 1 µM Pr-9 (positive control), 1 µM Pr-9-1, 1 µM Pr-9-4, or 1 µM ENDX (negative control). Radioimmunoprecipitation Assay (RIPA) protein lysates were collected 24, 48, and 72 hours after treatment.
For western blot analysis, 25 µg of protein lysates were run on Criterion precast 10% Bis-Tris gel, transferred to PVDF membrane, incubated in TBST-5% milk for one hour, and then incubated overnight with PKCβ1 (SC8049, mouse, 1:200), E2F1 (SC251, mouse, 1:250), Cyclin D1 (CS2978, rabbit, 1:1000), or Actin (Sigma A2228, mouse, 1:10,000 or CS8457, rabbit, 1:2000) primary antibodies in TBST-5% BSA solution. Membranes were washed in TBS-T, incubated for one-hour in HRP-linked anti-rabbit or anti-mouse secondary antibodies in TBST-5% milk, and washed in TBS-T. Bands were developed using west-pico or west-femto chemiluminescent substrate reagents.

[3] = test system: MDAMB436 cells; test: crystal violet (CV) proliferation assay, MDAMB436; conditions: Homo sapiens, MDA-MB-436, MDAMB436 (PKCβ1^low, Rb^negative) 2000 cells
Protocol: as §1

IC50 [3]: 0.064 µM
Compound: CCC(=C(c1ccc(O)cc1)c1ccc(OCCN(C)C(=O)COCCOCCNC(=O)Cc2ccc3c(c2)CN(C2CCC(=O)NC2=O)C3=O)cc1)c1ccccc1 (stereo not shown) [TC-Pr-009, 2-[2-(2-2-[2-(2,6-dioxopiperidin-3-yl)-1-oxo-2,3-dihydro-1H-isoindol-5-yl]acetamidoethoxy)ethoxy]-N-(2-4-[1-(4-hydroxyphenyl)-2-phenylbut-1-en-1-yl]phenoxyethyl)-N-methylacetamide]
IC50 [1]: 1 to 10 µM
PKCβ1 protein levels [2]: altered to varying extent
protein levels of E2F1 and Cyclin D1 ([2]; listed as Pr-9): clearly reduced
